From patent US20200270225A1, “Chiral Diacylhydrazine Ligands for Modulating the Expression of Exogenous Genes via an Ecdysone Receptor Complex” (Intrexon Corporation, priority 2007, published 2020)
Where two headings read alike, the source gives them in different places.

Legend:
[1] = target: T1, [V390I/Y410E/E274V]-CfEcR (Choristoneura fumiferana, UniProt O77240); type: cell-based; conditions: 3T3 Cells; for RMFI (relative maximum fold induction): relative to GS-E ligand
T1 construct: assay construct b835
Method in brief: (§1)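 NIH3T3 cells were transiently co-transfected with GAL4-DBD fused to CfEcR DEF domains (wild-type or V390I/Y410E/E274V), VP16-AD fused to chimeric human/Locusta RXR, and a GAL4-response luciferase reporter. Ligand was given at 8 doses, 0.01–33 µM, 0.33% DMSO, luciferase read at 48 h. EC50 came from fold induction over DMSO via three-parameter logistic fit; Relative Max FI was taken versus GS™-E ligand.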

[2] = target: wild-type Choristoneura fumiferana EcR (D, E and F domains) (Choristoneura fumiferana, UniProt O77240); type: cell-based; conditions: WT-CtEcR, 3T3 Cells; for RMFI (relative maximum fold induction): relative to GS-E ligand
Method in brief: as §1

Row | Compound | melting point | EC50 ([1]; R) | RMFI (relative maximum fold induction) ([1]; R) | EC50 ([2]; R) | RMFI (relative maximum fold induction) ([2]; R) | EC50 ([1]; S) | RMFI (relative maximum fold induction) ([1]; S) | EC50 ([2]; S) | RMFI (relative maximum fold induction) ([2]; S)
1 | CCC[C@@H](N(NC(=O)c1ccccc1)C(=O)c1cc(C)cc(C)c1)C(C)(C)C [Example 2, (R)-3,5-Dimethyl-benzoic acid N′-benzoyl-N-(1-tert-butyl-butyl)-hydrazide] | 66 to 68 °C | 2.2 nM | 0.91 | ~30 nM | 0.74 |  |  |  | 
2 | CCC[C@@H](N(NC(=O)c1ccccc1C)C(=O)c1cc(C)cc(C)c1)C(C)(C)C [Example 3, (R)-3,5-Dimethyl-benzoic acid N-(1-tert-butyl-butyl)-N′-(2-methyl-benzoyl)-hydrazide] | 137 to 138 °C | 1.1 nM | 0.69 | 90 nM | 0.75 |  |  |  | 
3 | CCC[C@@H](N(NC(=O)c1ccccc1F)C(=O)c1cc(C)cc(C)c1)C(C)(C)C [Example 5, (R)-3,5-Dimethyl-bcnzoic acid N-(1-tert-butyl-butyl)-N′-(2-fluoro-benzoyl)-hydrazide] | 114 to 116 °C | ~0.8 nM | 1.16 | ~40 nM | 0.68 |  |  |  | 
4 | CCC[C@@H](N(NC(=O)c1ccccc1Cl)C(=O)c1cc(C)cc(C)c1)C(C)(C)C [Example 6, (R)-3,5-Dimethyl-benzoic acid N-(1-tert-butyl-butyl)-N′-(2-chloro-benzoyl)-hydrazide] | 138 to 140 °C | 0.63 nM | 1.01 | ~20 nM | 0.88 |  |  |  | 
5 | CCC[C@@H](N(NC(=O)c1ccccc1Br)C(=O)c1cc(C)cc(C)c1)C(C)(C)C [Example 7, (R)-3,5-Dimethyl-benzoic acid N′-(2-bromo-benzoyl)-N-(1-tert-butyl-butyl)-hydrazide] | 145 to 147 °C | 1.4 nM | 0.90 | 78.7 nM | 0.58 |  |  |  | 
6 | CCC[C@@H](N(NC(=O)[C@@H](C)c1ccc2cc(OC)ccc2c1)C(=O)c1cc(C)cc(C)c1)C(C)(C)C [Example 30, (R)-3,5-Dimethyl-benzoic Acid N-(1-tert-butyl-butyl)-N′—(S)-[2-(6-methoxy-naphthalen-2-yl)-propionyl]-hydrazide] | 98 °C |  |  |  |  |  |  |  | 
7 | CCC[C@H](C1CCCCC1)N(NC(=O)c1cccc(OC)c1CC)C(=O)c1cc(C)cc(C)c1 [Example 52, (R)-3,5-Dimethyl-benzoic Acid N-(1-cyclohexyl-butyl)-N′-(2-ethyl-3-methoxy-benzoyl)-hydrazide] |  | ~200 nM | 0.64 | 220 nM | 0.38 |  |  |  | 
8 | CCC[C@H](C1CCCCC1)N(NC(=O)c1ccccc1)C(=O)c1cc(C)cc(C)c1 [Example 53, (R)-3,5-Dimethyl-benzoic acid N′-benzoyl-N-(1-cyclohexyl-butyl)-hydrazide] |  | 629 nM | 0.62 | ~3300 nM | 0.30 |  |  |  | 
9 | CCC[C@H](C1CCCCC1)N(NC(=O)c1cccc(OC)c1)C(=O)c1cc(C)cc(C)c1 [Example 54, (R)-3,5-Dimethyl-benzoic acid N-(1-cyclohexyl-butyl)-N′-(3-methoxy-benzoyl)-hydrazide] |  | 474 nM | 0.44 | ~3300 nM | 0.19 |  |  |  | 
10 | CCC[C@H](C1CCCCC1)N(NC(=O)c1ccc(CC)cc1)C(=O)c1cc(C)cc(C)c1 [Example 55, (R)-3,5-Dimethyl-benzoic acid N-(1-cyclohexyl-butyl)-N′-(4-ethyl-benzoyl)-hydrazide] |  | ~70 nM | 0.42 | ~2000 nM | 0.26 |  |  |  | 
11 | CCC[C@@H](C1CCCCC1)N(NC(=O)c1cccc(OC)c1CC)C(=O)c1cc(C)cc(C)c1 [Example 56, (S)-3,5-Dimethyl-benzoic acid N-(1-cyclohexyl-butyl)-N′-(2-ethyl-3-methoxy-benzoyl)-hydrazide] |  |  |  |  |  | 107 nM | 0.52 | 159 nM | 0.37
12 | CCC[C@@H](C1CCCCC1)N(NC(=O)c1ccccc1)C(=O)c1cc(C)cc(C)c1 [Example 57, (S)-3,5-Dimethyl-benzoic acid N′-benzoyl-N-(1-cyclohexyl-butyl)-hydrazide] |  |  |  |  |  | 769 nM | 0.50 | 2750 nM | 0.32
13 | CCC[C@@H](C1CCCCC1)N(NC(=O)c1cccc(OC)c1)C(=O)c1cc(C)cc(C)c1 [Example 58, (S)-3,5-Dimethyl-benzoic acid N-(1-cyclohexyl-butyl)-N′-(3-methoxy-benzoyl)-hydrazide] |  |  |  |  |  | 121 nM | 0.42 | ~3300 nM | 0.25
14 | CCC[C@@H](C1CCCCC1)N(NC(=O)c1ccc(CC)cc1)C(=O)c1cc(C)cc(C)c1 [Example 59, (S)-3,5-Dimethyl-benzoic acid N-(1-cyclohexyl-butyl)-N′-(4-ethyl-benzoyl)-hydrazide] |  |  |  |  |  | ~30 nM | 0.35 | ~1000 nM | 0.28
15 | C=CC[C@H](C1CCCCC1)N(NC(=O)c1cccc(OC)c1C)C(=O)c1cc(C)cc(C)c1 [Example 60, (R)-3,5-Dimethyl-benzoic acid N-(1-cyclohexyl-but-3-enyl)-N′-(3-methoxy-2-methyl-benzoyl)-hydrazide] |  | 746 nM | 0.78 | ~2000 nM | 0.62 |  |  |  | 
16 | C=CC[C@H](C1CCCCC1)N(NC(=O)c1cccc(OC)c1C)C(=O)c1cc(C)c(OC)c(C)c1 [Example 61, (R)-4-Methoxy-3,5-dimethyl-benzoic acid N-(1-cyclohexyl-but-3-enyl)-N′-(3-methoxy-2-methyl-benzoyl)-hydrazide] |  | 1020 nM | 0.67 | ~3300 nM | 0.33 |  |  |  | 
17 | C=CC[C@@H](CCc1ccccc1)N(NC(=O)c1ccc(CC)cc1)C(=O)c1cc(C)cc(C)c1 [Example 62, (R)-3,5-Dimethyl-benzoic Acid N′-(4-ethyl-benzoyl)-N-(1-phenethyl-but-3-enyl)-hydrazide] |  | 1990 nM | 0.54 | 3090 nM | 0.14 |  |  |  | 
18 | Cc1cc(C)cc(C(=O)N(NC(=O)OCc2ccccc2)[C@@H](CCCO)C(C)(C)C)c1 [Example 63, (S)—N′-(1-tert-Butyl-4-hydroxy-butyl)-N′-(3,5-dimethyl-benzoyl)-hydrazine Carboxylic Acid Benzyl Ester] |  |  |  |  |  | > 10000 nM |  | > 10000 nM | 
19 | Cc1cc(C)cc(C(=O)N(NC(=O)OCc2ccccc2)[C@H](CCCO)C(C)(C)C)c1 [Example 64, (R)—N′-(1-tert-Butyl-4-hydroxy-butyl)-N′-(3,5-dimethyl-benzoyl)-hydrazine carboxylic Acid benzyl ester] |  | ~8000 nM | 0.33 | > 33000 nM | 0.02 |  |  |  | 
